Experimental data: US11000033B2, “Ketone or oxime compound, and herbicide” (NISSAN CHEMICAL CORPORATION, priority 2014, dated 2021)

Tests used:
Assay type in all cases: in vivo
Monochoria vaginalis = experiment: Test Example 1: herbicidal activity, application before weed generation in submerged conditions (symbol C); conditions: application herbicide amount 320 g/ha
Procedure, shortened: (§1)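 Mixed weed seeds sown in alluvial soil under 4 cm of water, with rice seedlings at the 2.5-leaf stage added. Same-day treatment: emulsion diluted to a set herbicide amount onto the water. Three weeks at 25–30 °C, then graded on a six-step scale.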

Apera spica-venti [1] = experiment: Test Example 4: herbicidal effect by soil treatment (symbol L); conditions: application herbicide amount 320 g/ha
Procedure, shortened: (§2)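 Seeds were sown in sterilized diluvial soil, covered with about 1.5 cm of soil, and the soil surface was sprayed with a water-diluted emulsion of the compound at a predetermined rate. Plants grew in a greenhouse at 25° C. to 30° C.; effects were scored visually 3 weeks after application.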

[2] = test system: Echinochloa oryzacola Vasing.; experiment: Test Example 1: herbicidal activity, application before weed generation in submerged conditions (symbol A); conditions: application herbicide amount 320 g/ha
Procedure, shortened: as §1

rapeseed = experiment: Test Example 5: effect on crop by foliage application, plastic box (symbol g); conditions: 320 g/ha, 3 weeks after application
Procedure, shortened: (§3)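 Greenhouse culture at 25° C. to 30° C. followed spot-like sowing into sterilized diluvial soil, with seed covered by roughly 1.5 cm of soil.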

[3] = test system: directly sowed rice plant; experiment: Test Example 3: effect on crop by foliage application, Wagner pot (symbol b); conditions: application herbicide amount 320 g/ha, Table 24
Procedure, shortened: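 Greenhouse culture at 25–30 °C of seeded rice, Cyperus difformis, Leptochloa chinensis and Echinochloa crus-galli var. crus-galli, in alluvial soil held under 0.1–0.5 cm of water in a Wagner pot.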

Scirpus juncoides = experiment: Test Example 1: herbicidal activity, application before weed generation in submerged conditions (symbol B); conditions: application herbicide amount 320 g/ha
Procedure, shortened: as §1

Setaria viridis = experiment: Test Example 4: herbicidal effect by soil treatment (symbol G); conditions: application herbicide amount 320 g/ha
Procedure, shortened: as §2

Lolium multiflorum Lam. = experiment: Test Example 5: herbicidal effect by foliage application, plastic box (symbol K); conditions: 320 g/ha, 3 weeks after application
Procedure, shortened: (§4)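 Herbicide, formulated as an emulsion and diluted in water, is sprayed onto the aerial parts of 14-day seedlings. These were grown at 25° C. to 30° C. in sterilized diluvial soil; effects are graded after 3 weeks.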

Stellaria media = experiment: Test Example 4: herbicidal effect by soil treatment (symbol P); conditions: application herbicide amount 320 g/ha
Procedure, shortened: as §2

Digitaria ciliaris = experiment: Test Example 5: herbicidal effect by foliage application, plastic box (symbol F); conditions: 320 g/ha, 3 weeks after application
Procedure, shortened: as §4

transplanted rice plant = experiment: Test Example 1: effect on crop, application before weed generation in submerged conditions (symbol a); conditions: application herbicide amount 320 g/ha
Procedure, shortened: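 Rice at 2.5 leaf stage transplanted into submerged soil (4 cm depth) sown with three weed species; herbicide applied before weed emergence.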

Galium spurium = experiment: Test Example 5: herbicidal effect by foliage application, plastic box (symbol Q); conditions: 320 g/ha, 3 weeks after application
Procedure, shortened: as §4

Avena fatua = experiment: Test Example 5: herbicidal effect by foliage application, plastic box (symbol I); conditions: 320 g/ha, 3 weeks after application
Procedure, shortened: as §4

Apera spica-venti [4] = experiment: Test Example 5: herbicidal effect by foliage application, plastic box (symbol L); conditions: 320 g/ha, 3 weeks after application
Procedure, shortened: as §4

wheat = experiment: Test Example 5: effect on crop by foliage application, plastic box (symbol e); conditions: 320 g/ha, 3 weeks after application
Procedure, shortened: as §3

Veronica persica = experiment: Test Example 4: herbicidal effect by soil treatment (symbol R); conditions: application herbicide amount 320 g/ha
Procedure, shortened: as §2

Abutilon theophrasti = experiment: Test Example 4: herbicidal effect by soil treatment (symbol M); conditions: application herbicide amount 320 g/ha
Procedure, shortened: as §2

Compound	C (Monochoria vaginalis) herbicidal effect grade (Monochoria vaginalis)	Herbicidal effect grade, L: Apera spica-venti (Apera spica-venti [1])	A (Echinochloa oryzacola Vasing.) herbicidal effect grade [2]	g: rapeseed, effect on crop grade (rapeseed)	b (directly sowed rice plant) effect on crop grade [3]	B (Scirpus juncoides) herbicidal effect grade (Scirpus juncoides)	Herbicidal effect grade, G: Setaria viridis (Setaria viridis)	K: Lolium multiflorum Lam., herbicidal effect grade (Lolium multiflorum Lam.)	Herbicidal effect grade, P: Stellaria media (Stellaria media)	F: Digitaria ciliaris, herbicidal effect grade (Digitaria ciliaris)	a (transplanted rice plant) effect on crop grade (transplanted rice plant)	Q: Galium spurium, herbicidal effect grade (Galium spurium)	I: Avena fatua, herbicidal effect grade (Avena fatua)	L: Apera spica-venti, herbicidal effect grade (Apera spica-venti [4])	e: wheat, effect on crop grade (wheat)	Herbicidal effect grade, R: Veronica persica (Veronica persica)	Herbicidal effect grade, M: Abutilon theophrasti (Abutilon theophrasti)
CC#Cc1cc(C)c(C2=C(O)CC(CC(=NOCC(F)(F)F)C(C)C)C2=O)c(C)c1 (centres unmarked) [9-015]	1 (Herbicidal ratio of 5% or higher and lower than 20%)	5 (Herbicidal ratio of 90% or more (almost completely withered))	5 (Herbicidal ratio of 90% or more (almost completely withered))	5 (Herbicidal ratio of 90% or more (almost completely withered))	5 (Herbicidal ratio of 90% or more (almost completely withered))	5 (Herbicidal ratio of 90% or more (almost completely withered))	5 (Herbicidal ratio of 90% or more (almost completely withered))	5 (Herbicidal ratio of 90% or more (almost completely withered))	0 (Herbicidal ratio of 5% or lower (almost no effect))	5 (Herbicidal ratio of 90% or more (almost completely withered))	5 (Herbicidal ratio of 90% or more (almost completely withered))	2 (Herbicidal ratio of 20% or higher and lower than 40%)	4 (Herbicidal ratio of 70% or higher and lower than 90%)	5 (Herbicidal ratio of 90% or more (almost completely withered))	3 (Herbicidal ratio of 40% or higher and lower than 70%)	0 (Herbicidal ratio of 5% or lower (almost no effect))	0 (Herbicidal ratio of 5% or lower (almost no effect))
COCCON=C(C)CC1CC(O)=C(c2c(C)cc(-n3cc(Cl)cn3)cc2C)C1=O (centres unmarked) [9-016]	2 (Herbicidal ratio of 20% or higher and lower than 40%)	1 (Herbicidal ratio of 5% or higher and lower than 20%)	5 (Herbicidal ratio of 90% or more (almost completely withered))	3 (Herbicidal ratio of 40% or higher and lower than 70%)	5 (Herbicidal ratio of 90% or more (almost completely withered))	5 (Herbicidal ratio of 90% or more (almost completely withered))	5 (Herbicidal ratio of 90% or more (almost completely withered))	5 (Herbicidal ratio of 90% or more (almost completely withered))	0 (Herbicidal ratio of 5% or lower (almost no effect))	5 (Herbicidal ratio of 90% or more (almost completely withered))	5 (Herbicidal ratio of 90% or more (almost completely withered))	2 (Herbicidal ratio of 20% or higher and lower than 40%)	5 (Herbicidal ratio of 90% or more (almost completely withered))	5 (Herbicidal ratio of 90% or more (almost completely withered))	3 (Herbicidal ratio of 40% or higher and lower than 70%)	0 (Herbicidal ratio of 5% or lower (almost no effect))	0 (Herbicidal ratio of 5% or lower (almost no effect))
COCCON=C(CC1CC(O)=C(c2c(C)cc(Br)cc2C)C1=O)C1CC1 (centres unmarked) [9-019]	0 (Herbicidal ratio of 5% or lower (almost no effect))	0 (Herbicidal ratio of 5% or lower (almost no effect))	4 (Herbicidal ratio of 70% or higher and lower than 90%)	1 (Herbicidal ratio of 5% or higher and lower than 20%)	5 (Herbicidal ratio of 90% or more (almost completely withered))	0 (Herbicidal ratio of 5% or lower (almost no effect))	5 (Herbicidal ratio of 90% or more (almost completely withered))	5 (Herbicidal ratio of 90% or more (almost completely withered))	0 (Herbicidal ratio of 5% or lower (almost no effect))	4 (Herbicidal ratio of 70% or higher and lower than 90%)	4 (Herbicidal ratio of 70% or higher and lower than 90%)	0 (Herbicidal ratio of 5% or lower (almost no effect))	4 (Herbicidal ratio of 70% or higher and lower than 90%)	1 (Herbicidal ratio of 5% or higher and lower than 20%)	0 (Herbicidal ratio of 5% or lower (almost no effect))	0 (Herbicidal ratio of 5% or lower (almost no effect))	0 (Herbicidal ratio of 5% or lower (almost no effect))
COCCON=C(CC1CC(O)=C(c2c(C)cc(-n3cc(Cl)cn3)cc2C)C1=O)C(C)C (centres unmarked) [9-022]	0 (Herbicidal ratio of 5% or lower (almost no effect))	0 (Herbicidal ratio of 5% or lower (almost no effect))	5 (Herbicidal ratio of 90% or more (almost completely withered))	0 (Herbicidal ratio of 5% or lower (almost no effect))	5 (Herbicidal ratio of 90% or more (almost completely withered))	3 (Herbicidal ratio of 40% or higher and lower than 70%)	5 (Herbicidal ratio of 90% or more (almost completely withered))	2 (Herbicidal ratio of 20% or higher and lower than 40%)	0 (Herbicidal ratio of 5% or lower (almost no effect))	5 (Herbicidal ratio of 90% or more (almost completely withered))	5 (Herbicidal ratio of 90% or more (almost completely withered))	0 (Herbicidal ratio of 5% or lower (almost no effect))	0 (Herbicidal ratio of 5% or lower (almost no effect))	2 (Herbicidal ratio of 20% or higher and lower than 40%)	0 (Herbicidal ratio of 5% or lower (almost no effect))	0 (Herbicidal ratio of 5% or lower (almost no effect))	0 (Herbicidal ratio of 5% or lower (almost no effect))
